The values that follow come from ChEMBL document CHEMBL1141623 (Bioorg Med Chem Lett, 2008).

For one data set, the target named is Mu-type opioid receptor (Homo sapiens, UniProt P35372). The data set can be described thus: Binding affinity to mu opioid receptor.
Data set [1] addresses Sodium-dependent noradrenaline transporter (Homo sapiens, UniProt P23975). Description: Inhibition of NET mediated norepinephrine uptake.
Data set [2] has as its system Rattus norvegicus. Description: Analgesic activity in iv dosed Sprague-Dawley rat assessed as duration of effect by tail-flick model of pain. The data set is classed as functional.
The test system of data set [3] is Rattus norvegicus. The data set can be described thus: Analgesic activity in iv dosed Sprague-Dawley rat by tail-flick model of pain. In kind it is functional.
Data set [4] concerns the target Sodium-dependent serotonin transporter (Homo sapiens, UniProt P31645). Description: Inhibition of SERT mediated 5-hydroxytryptamine uptake.
The nature of data set [5]: Stability in rat liver microsome after 60 mins. The note with it: liver microsomes, read-out: Stability. In kind it is ADME.
A short description of data set [6]: Stability in rat liver S9 fraction after 60 mins. The data set is classed as ADME, subcellular. The note with it: read-out: Stability.
The nature of data set [7]: Stability in human liver microsome after 60 mins. In kind it is ADME. The note with it: liver microsomes, read-out: Stability.
Data set [8] can be described thus: Stability in human liver S9 fraction after 60 mins. The note with it: read-out: Stability. In kind it is ADME, subcellular.
The subject of data set [9] is Rattus norvegicus. Description: Toxicity in iv dosed Sprague-Dawley rat. In kind it is organism-based. The note with it: in vivo.
Data set [10] in a line: Bioavailability in […] dosed Sprague-Dawley rat. The data set is classed as ADME, organism-based. The note with it: in vivo.

Sequence of Sodium-dependent noradrenaline transporter (P23975 whole entry): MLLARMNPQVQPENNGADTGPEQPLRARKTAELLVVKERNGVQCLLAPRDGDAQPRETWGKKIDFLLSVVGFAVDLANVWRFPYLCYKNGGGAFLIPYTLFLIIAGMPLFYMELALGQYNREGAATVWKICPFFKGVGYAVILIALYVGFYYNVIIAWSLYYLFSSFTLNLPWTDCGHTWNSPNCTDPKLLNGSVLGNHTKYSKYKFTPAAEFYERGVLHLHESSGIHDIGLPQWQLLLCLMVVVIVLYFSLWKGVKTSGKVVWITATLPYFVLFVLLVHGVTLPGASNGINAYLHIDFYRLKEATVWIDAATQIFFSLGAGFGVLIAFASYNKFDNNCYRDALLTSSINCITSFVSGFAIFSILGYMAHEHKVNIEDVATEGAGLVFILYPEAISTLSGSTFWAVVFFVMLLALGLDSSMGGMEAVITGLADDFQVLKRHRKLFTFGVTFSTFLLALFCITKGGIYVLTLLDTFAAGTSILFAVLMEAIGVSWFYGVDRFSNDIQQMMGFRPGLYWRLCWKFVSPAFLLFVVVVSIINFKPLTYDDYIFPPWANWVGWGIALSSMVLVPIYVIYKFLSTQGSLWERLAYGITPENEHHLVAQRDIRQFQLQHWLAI
Sequence of Sodium-dependent serotonin transporter (P31645 whole entry): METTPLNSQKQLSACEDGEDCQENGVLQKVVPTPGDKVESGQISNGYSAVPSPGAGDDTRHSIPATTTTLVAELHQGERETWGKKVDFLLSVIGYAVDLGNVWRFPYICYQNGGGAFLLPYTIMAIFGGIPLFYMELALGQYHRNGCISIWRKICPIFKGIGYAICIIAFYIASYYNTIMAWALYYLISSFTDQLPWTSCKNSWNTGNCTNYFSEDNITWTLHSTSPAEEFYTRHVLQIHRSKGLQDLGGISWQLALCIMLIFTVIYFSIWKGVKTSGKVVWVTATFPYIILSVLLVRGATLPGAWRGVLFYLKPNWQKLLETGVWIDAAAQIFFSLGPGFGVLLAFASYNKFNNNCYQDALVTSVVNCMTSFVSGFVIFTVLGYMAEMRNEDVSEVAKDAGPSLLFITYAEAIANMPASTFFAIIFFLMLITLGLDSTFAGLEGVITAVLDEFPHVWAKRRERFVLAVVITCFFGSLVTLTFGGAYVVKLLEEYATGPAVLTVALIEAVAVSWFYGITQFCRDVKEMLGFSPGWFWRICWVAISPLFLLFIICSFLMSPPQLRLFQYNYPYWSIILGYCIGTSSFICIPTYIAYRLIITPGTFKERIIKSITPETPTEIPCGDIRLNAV
Sequence of Mu-type opioid receptor (P35372 whole entry): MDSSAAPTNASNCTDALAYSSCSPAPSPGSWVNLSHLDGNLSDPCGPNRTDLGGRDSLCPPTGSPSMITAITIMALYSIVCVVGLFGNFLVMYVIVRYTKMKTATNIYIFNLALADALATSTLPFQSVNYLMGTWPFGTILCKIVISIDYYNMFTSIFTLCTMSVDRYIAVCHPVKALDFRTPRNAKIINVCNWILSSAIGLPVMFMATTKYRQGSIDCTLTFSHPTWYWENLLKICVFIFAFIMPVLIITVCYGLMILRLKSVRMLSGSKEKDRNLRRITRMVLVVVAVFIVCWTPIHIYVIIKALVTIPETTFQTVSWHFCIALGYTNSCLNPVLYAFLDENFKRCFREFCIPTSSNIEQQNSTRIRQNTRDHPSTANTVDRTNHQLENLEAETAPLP

Take `CNC[C@@H]1CCCC[C@@]1(OC)c1cccc(OC)c1`: the IC50 (commonly the midpoint of a concentration-inhibition curve) was over 10000 nM on Mu-type opioid receptor and 0.898 µM in data set [1]. Moreover, the Time in the data set with Rattus norvegicus [2] came out at 27 min. In addition, the ED50 (usually the midpoint of the dose-response relation) in the data set on Rattus norvegicus [3] is 3.1 mg/kg.

`COc1cccc([C@@]2(OCCO)CCCC[C@@H]2CN(C)C)c1`: the IC50 was over 10000 nM at Mu-type opioid receptor, over 10000 nM in data set [4] and over 10 µM in [1].

As for `CNC[C@H]1CCCC[C@]1(OC)c1cccc(O)c1` (stereo in doubt; 23), the IC50 on Mu-type opioid receptor amounted to 122 nM; in [4] it was 6920 nM; in data set [1], 2.25 µM. For the same molecule, the remaining at 1 h came to 86% in data set [5], 82% in [6], 103% in [7] and 108% in [8].

For the molecule `CO[C@]1(c2ccccc2)CCCC[C@@H]1CN(C)C` (stereo in doubt; 28), the half-inhibitory concentration (IC50) turned out to be 2590 nM on Mu-type opioid receptor, 2960 nM in data set [4] and 1.52 µM in [1]. For the same molecule, the Activity result in the data set with Rattus norvegicus [9] is on record as “Toxic”.

In data set [1], `CN(C)C[C@H]1CCCC[C@]1(O)c1cccc(O)c1` (racemic) [O-DESMETHYL TRAMADOL] displayed an IC50 of over 10 µM. Moreover, the Time in the data set with Rattus norvegicus [2] is 2 min.

With `CNCC1CCCCC1(OC)c1cccc(OC)c1` (racemic), the values for the IC50 (at Mu-type opioid receptor; in data set [1]) were over 10000 nM and 3.87 µM, respectively. The remaining at 1 h in data set [5] was found to be 31%; in [6], 26%; in data set [7] it was 77%; in data set [8], 76%. This molecule registered a median effective dose (ED50) in the data set with Rattus norvegicus [3] of 2.9 mg/kg.

`COc1cccc([C@@]2(OCCCO)CCCC[C@@H]2CN(C)C)c1`: the IC50 was 8000 nM on Mu-type opioid receptor, 1490 nM in [4] and 3.86 µM in data set [1].

As for `CO[C@@]1(c2ccccc2)CCCC[C@H]1CN(C)C`, the figures for the IC50 (at Mu-type opioid receptor; in data set [4]; in data set [1]) were over 10000 nM, 3880 nM and 1.56 µM, respectively. Also, in the data set on Rattus norvegicus [2], the Time is recorded as 13 min. Further, the ED50 in the data set on Rattus norvegicus [3] amounted to 3.3 mg/kg.

Consider `CCCCO[C@]1(c2cccc(O)c2)CCCC[C@@H]1CN(C)C`, for which the IC50 on Mu-type opioid receptor is 97 nM; in [4] it was 2740 nM; in data set [1], over 10 µM.

On to `CN(C)C[C@H]1CCCC[C@]1(OCCO)c1cccc(O)c1`, for which the 50% inhibitory concentration (IC50) is 190 nM on Mu-type opioid receptor, 1500 nM in data set [4] and 5.95 µM in data set [1].

For the molecule `CCO[C@]1(c2cccc(OC)c2)CCCC[C@@H]1CN(C)C`, the IC50 at Mu-type opioid receptor was over 10000 nM; in [4], 181 nM; in [1] it was 1.01 µM.

For the molecule `CN(C)C[C@H]1CCCC[C@]1(OCC1CC1)c1cccc(O)c1`, the values for the IC50 (at Mu-type opioid receptor; in data set [4]; in data set [1]) were 130 nM, 3670 nM and over 10 µM, respectively.

As for `COc1cccc([C@@]2(OCC3CC3)CCCC[C@@H]2CN(C)C)c1`, the concentration for half-maximal inhibition (IC50) at Mu-type opioid receptor is 7670 nM; in data set [4], 25 nM; in [1], 3.78 µM. Moreover, the remaining at 1 h stood at 3% in data set [5], 6% in data set [6], 29% in [7] and 35% in data set [8].

Take `CNC[C@H]1CCCC[C@]1(OC)c1cccc(OC)c1`: the 50% inhibitory concentration (IC50) was over 10000 nM on Mu-type opioid receptor and over 10 µM in [1]. The Activity entry with Rattus norvegicus [9] was “Toxic”.

Turning to `CCO[C@]1(c2cccc(O)c2)CCCC[C@@H]1CN(C)C`, the IC50 at Mu-type opioid receptor worked out at 130 nM; in [4], 1420 nM; in [1] it was 3.78 µM.

Take `CO[C@]1(c2ccccc2)CCCC[C@@H]1CN(C)C` (stereo in doubt; 14): the 50% inhibitory concentration (IC50) at Mu-type opioid receptor turned out to be 4750 nM; in data set [4] it was 2530 nM; in [1], 3.79 µM. The remaining at 1 h in data set [5] amounted to 56%; in [6] it was 61%; in data set [7], 96%; in [8] it was 101%.

As for `CCCO[C@]1(c2cccc(OC)c2)CCCC[C@@H]1CN(C)C`, the 50% inhibitory concentration (IC50) is 7900 nM on Mu-type opioid receptor, 25 nM in [4] and 3.87 µM in data set [1].

For the molecule `CCCCO[C@]1(c2cccc(OC)c2)CCCC[C@@H]1CN(C)C`, the values for the IC50 (at Mu-type opioid receptor; in [4]; in data set [1]) were 6490 nM, 110 nM and 6.69 µM, respectively. Also, the remaining at 1 h in data set [5] was 3%; in data set [6], 4%; in [7], 9%; in [8], 10%.

Regarding `CCCO[C@]1(c2cccc(O)c2)CCCC[C@@H]1CN(C)C`, the figures for the IC50 (at Mu-type opioid receptor; in data set [4]; in [1]) were 190 nM, 2800 nM and 6.25 µM, respectively.

For `CNC[C@H]1CCCC[C@]1(OC)c1cccc(O)c1` (stereo in doubt; 26), the concentration for half-maximal inhibition (IC50) is 48 nM at Mu-type opioid receptor, 5260 nM in data set [4] and over 10 µM in [1].

`COc1cccc([C@@]2(OC)CCCC[C@@H]2CN(C)C)c1` (racemic): the IC50 amounted to 7870 nM on Mu-type opioid receptor and 0.161 µM in data set [1]. Further, the remaining at 1 h was 17% in data set [5], 12% in data set [6], 82% in [7] and 85% in data set [8]. Also, the Time in the data set with Rattus norvegicus [2] was determined as 20 min. In addition, the ED50 with Rattus norvegicus [3] was 0.7 mg/kg. The bioavailability (as a rule, the share of a dose that reaches the circulation, judged against a reference dose that is usually intravenous) in data set [10] stood at 11%.

`CNC[C@@H]1CCCC[C@@]1(OC)c1cccc(O)c1`: the IC50 came to 84 nM at Mu-type opioid receptor, 1050 nM in data set [4] and 9 µM in [1].

Turning to `COc1cccc(C2(O)CCCCC2CN(C)C)c1` (racemic) [TRAMADOL], in data set [1], the IC50 amounted to 3.86 µM. Moreover, the remaining at 1 h in [5] amounted to 58%; in data set [6] it was 56%; in [7], 96%; in data set [8], 95%. The Time in the data set on Rattus norvegicus [2] amounted to 69 min. In addition, the 50% effect level with Rattus norvegicus [3] (ED50) was put at a dose of 11.3 mg/kg. In [10], this molecule displayed a bioavailability of 36%.

Regarding `CO[C@]1(c2cccc(C#N)c2)CCCC[C@@H]1CN(C)C`, the values for the IC50 (at Mu-type opioid receptor; in [4]; in [1]) were over 10000 nM, 6240 nM and 4.49 µM, respectively. Moreover, the remaining at 1 h in [5] amounted to 69%; in data set [6], 83%; in data set [7], 89%; in data set [8] it was 94%.

On to `CO[C@]1(c2cccc(O)c2)CCCC[C@@H]1CN(C)C`, for which the IC50 was determined as 56 nM at Mu-type opioid receptor, 10000 nM in data set [4] and 0.525 µM in data set [1]. In addition, the remaining at 1 h in data set [5] was 88%; in [6], 74%; in [7], 104%; in [8], 98%.
